Results from US20250195521A1 (Revolution Medicines, Inc., priority 2020, published 2025).
Like-named read-outs stand apart in the source and are kept apart here.

How the values were obtained:
[1] = test system: K-Ras G12C (NCI-H358 cells); test: Potency assay: pERK in NCI-H358 cells; assay type: cell-based, human; details: NCI-H358 cells, 4 hours, read-out: pERK EC50 (H358 KRAS G12C)
In short: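 Cells plated the day before were exposed for 4 h at 37° C, 5% CO2 to a 10-point, 3-fold DMSO dilution series (10 mM top stock), in duplicate. Phospho-ERK was read by AlphaLISA SureFire Ultra or by In-Cell Western with DRAQ5 DNA stain, and IC50 came from a 4-parameter sigmoidal fit.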

NCI-H358 (K-Ras G12C) = test: CellTiter-Glo cell viability assay, NCI-H358; assay type: cell-based, human; details: 5-day treatment, read-out: H358 Cell Viability assay data (K-Ras G12C, IC50)
In short: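 Viability read-out was luminescent (CellTiter-Glo) on day 5 of compound exposure in K-Ras G12C NCI-H358 cells. Values were expressed as percent of mean DMSO signal and fitted with a four-parameter logistic curve.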

[2] = target: K-Ras G12C(GMP-PNP) binding to BRAF RBD (Homo sapiens (Human), UniProt P01116+P62937, G12C); test: Disruption of BRAF RBD interaction with K-Ras (FRET / MOA assay), K-Ras G12C; assay type: biochemical
Chain of K-Ras G12C(GMP-PNP) binding to BRAF RBD (P01116 other isoform, or with tags, fused parts or gaps G12C): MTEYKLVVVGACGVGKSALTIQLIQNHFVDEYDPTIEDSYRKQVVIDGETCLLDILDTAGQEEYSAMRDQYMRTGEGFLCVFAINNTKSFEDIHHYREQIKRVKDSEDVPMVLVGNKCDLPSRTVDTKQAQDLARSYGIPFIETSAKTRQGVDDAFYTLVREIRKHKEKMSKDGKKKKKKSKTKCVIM
Chain of K-Ras G12C(GMP-PNP) binding to BRAF RBD (P62937 whole entry): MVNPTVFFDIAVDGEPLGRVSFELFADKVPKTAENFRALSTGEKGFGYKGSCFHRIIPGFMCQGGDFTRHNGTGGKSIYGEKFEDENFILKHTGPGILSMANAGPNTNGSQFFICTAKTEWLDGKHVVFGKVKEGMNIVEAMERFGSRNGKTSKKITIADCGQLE
Text: Note—The following protocol describes a procedure for monitoring disruption of K-Ras G12C(GMP-PNP) binding to BRAF^RBD by a compound of the invention. This protocol may also be executed substituting other Ras proteins or nucleotides.
The purpose of this biochemical assay was to measure the ability of test compounds to facilitate ternary complex formation between a nucleotide-loaded K-Ras isoform and Cyclophilin A; the resulting ternary complex disrupts binding to a BRAF^RBD construct, inhibiting K-Ras signaling through a RAF effector. Data is reported as IC50 values.
Compound was present in plate wells as a 10-point 3-fold dilution series starting at a final concentration of 30 μM. After incubation at 25° C. for 3 hours, a mixture of Anti-His Eu—W1024 and anti-GST allophycocyanin was then added to assay sample wells at final concentrations of 10 nM and 50 nM, respectively, and the reaction incubated for an additional 1.5 hours. […] Compounds that facilitate disruption of a K-Ras: RAF complex were identified as those eliciting a decrease in the TR-FRET ratio relative to DMSO control wells.

KRAS G12C = KRAS G12C (Homo sapiens (Human), UniProt P01116+P62937, G12C); test: Ras-Raf disruption/FRET/MOA assay (BRAF RBD, Cyclophilin A); assay type: biochemical; details: read-out: KRAS G12C FRET IC50
Chain of KRAS G12C (P01116-2 other isoform, or with tags, fused parts or gaps G12C): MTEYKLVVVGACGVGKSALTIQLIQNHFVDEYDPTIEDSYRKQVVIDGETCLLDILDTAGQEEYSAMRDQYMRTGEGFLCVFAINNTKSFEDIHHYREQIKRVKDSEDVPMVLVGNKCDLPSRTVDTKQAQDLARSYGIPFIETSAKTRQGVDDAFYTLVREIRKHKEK
Chain of KRAS G12C (P62937 whole entry): as the sequence (P62937 whole entry) above
In short: (§1)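 His6-K-Ras-GMPPNP (12.5 nM), GST-BRAF RBD (50 nM) and tagless Cyclophilin A (25 μM) were combined in 25 mM HEPES pH 7.3 with 100 mM NaCl, 5 mM MgCl2, 0.1% BSA and 0.002% Tween20, with compound as a 10-point 3-fold series from 30 μM final, then incubated 3 h at 25° C.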

KRAS G12V = KRAS G12V (Homo sapiens (Human), UniProt P01116+P62937, G12V); test: as above; assay type: biochemical; details: read-out: KRAS G12V FRET IC50
Chain of KRAS G12V (P01116 other isoform, or with tags, fused parts or gaps G12V): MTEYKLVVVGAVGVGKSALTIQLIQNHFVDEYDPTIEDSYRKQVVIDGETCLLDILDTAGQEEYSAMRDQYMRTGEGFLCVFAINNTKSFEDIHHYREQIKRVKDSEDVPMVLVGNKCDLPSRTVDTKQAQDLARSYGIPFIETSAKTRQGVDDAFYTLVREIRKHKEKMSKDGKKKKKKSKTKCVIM
Chain of KRAS G12V (P62937 whole entry): as the sequence (P62937 whole entry) above
In short: as §1

KRAS G12D = KRAS G12D (Homo sapiens (Human), UniProt P01116+P62937, G12D); test: as above; assay type: biochemical; details: read-out: KRAS G12D FRET IC50
Chain of KRAS G12D (P01116 other isoform, or with tags, fused parts or gaps G12D): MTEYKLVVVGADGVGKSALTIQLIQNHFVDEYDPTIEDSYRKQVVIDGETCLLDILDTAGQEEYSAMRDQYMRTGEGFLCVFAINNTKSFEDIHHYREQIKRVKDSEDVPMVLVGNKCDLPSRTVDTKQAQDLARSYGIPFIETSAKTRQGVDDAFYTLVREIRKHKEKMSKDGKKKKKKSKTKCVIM
Chain of KRAS G12D (P62937 whole entry): as the sequence (P62937 whole entry) above
In short: as §1

KRAS G13C = KRAS G13C (Homo sapiens (Human), UniProt P01116+P62937, G13C); test: as above; assay type: biochemical; details: read-out: KRAS G13C FRET IC50
Chain of KRAS G13C (P01116 other isoform, or with tags, fused parts or gaps G13C): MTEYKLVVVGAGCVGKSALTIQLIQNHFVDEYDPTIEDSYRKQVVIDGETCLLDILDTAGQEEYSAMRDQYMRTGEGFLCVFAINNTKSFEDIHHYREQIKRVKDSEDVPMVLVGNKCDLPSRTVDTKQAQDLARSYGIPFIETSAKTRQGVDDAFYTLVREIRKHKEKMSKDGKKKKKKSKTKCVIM
Chain of KRAS G13C (P62937 whole entry): as the sequence (P62937 whole entry) above
In short: as §1

KRAS G12S = KRAS G12S (Homo sapiens (Human), UniProt P01116+P62937, G12S); test: as above; assay type: biochemical; details: read-out: KRAS G12S FRET IC50
Chain of KRAS G12S (P01116 other isoform, or with tags, fused parts or gaps G12S): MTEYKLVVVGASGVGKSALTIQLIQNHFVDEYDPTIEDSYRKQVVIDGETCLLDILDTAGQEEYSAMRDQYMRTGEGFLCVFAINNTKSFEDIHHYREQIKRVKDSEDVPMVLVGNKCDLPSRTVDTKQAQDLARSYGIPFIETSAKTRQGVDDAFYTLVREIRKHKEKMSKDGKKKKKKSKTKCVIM
Chain of KRAS G12S (P62937 whole entry): as the sequence (P62937 whole entry) above
In short: as §1

[3] = test system: Capan-1 cells (K-Ras G12V); test: CellTiter-Glo cell viability, Capan-1; assay type: cell-based, human; details: Homo sapiens, CAPAN-1, 120 h, K-Ras G12V, 5-day treatment; read-out: Capan-1 Cell Viability IC50
In short: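 Viability read by luminescence on day 5 after direct compound addition to cells, following ~30 min room-temperature equilibration. Values expressed as percent of mean DMSO signal, curves fitted with a four-parameter logistic model.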

| SMILES | EC50 ([1]; Homo sapiens) | IC50 (NCI-H358 (K-Ras G12C); Homo sapiens, NCI-H358, 120 h) | IC50 ([2]; read-out: KRAS G12C FRET IC50) | also measured |
| --- | --- | --- | --- | --- |
| CCn1c(-c2cccnc2[C@H](C)OC)c2c3cc(ccc31)-c1csc(n1)C[C@H](NC(=O)[C@H](C(C)C)N(C)C(=O)N1CCCOCC1)C(=O)N1CCC[C@H](N1)C(=O)OCC(C)(C)C2 [Compound A335] | < 5000 nM | 10 to 100 nM | 100 to 1000 nM | – |
| CCO[C@@H]1c2nc(cs2)-c2ccc3c(c2)c(c(-c2cc([C@H]4CCN5CCOC[C@@H]5C4)cnc2[C@H](C)OC)n3CC)CC(C)(C)COC(=O)[C@@H]2CCCN(N2)C(=O)[C@H]1NC(=O)[C@H]1[C@H](C)[C@@H]1C [Compound A390, (1r,2R,3S)—N-((6^3S,3S,4S,Z)-3-ethoxy-1^1-ethyl-1^2-(2-((S)-1-methoxyethyl)-5-((8R,9aS)-octahydropyrido [2,1-c][1,4]oxazin-8-yl)pyridin-3-yl)-10,10-dimethyl-5,7-dioxo-6^1,6^2,6^3,6^4,6^5,6^6-hexahydro-1^1H-8-oxa-2 (4,2)-thiazola-1 (5,3)-indola-6 (1,3)-pyridazinacycloundecaphane-4-yl)-2,3-dimethylcyclopropane-1-carboxamide] | – | – | 100 to 1000 nM | EC50 [1]: < 5000 nM; IC50 (NCI-H358 (K-Ras G12C)): 100 to 1000 nM |
| CCn1c(-c2cccnc2[C@H](C)OC)c2c3cc(ccc31)C1=C[C@@H](O)CN(C1)C[C@H](NC(=O)[C@H]1[C@H](C)[C@@H]1C)C(=O)N1CCC[C@H](N1)C(=O)OCC(C)(C)C2 [Compound A424, (1R,2R,3S)—N-((2^3R,6^3S,4S)-1^1-ethyl-23-hydroxy-1^2-(2-((S)-1-methoxyethyl)pyridin-3-yl)-10,10-dimethyl-5,7-dioxo-2^1,2^2,2^3,2^6,6^1,6^2,6^3,6^4,6^5,6^6-decahydro-1^1H-8-oxa-1 (5,3)-indola-6 (1,3)-pyridazina-2 (5,1)-pyridinacycloundecaphane-4-yl)-2,3-dimethylcyclopropane-1-carboxamide] | – | – | 100 to 1000 nM | EC50 [1]: < 5000 nM; IC50 (NCI-H358 (K-Ras G12C)): 100 to 1000 nM; IC50 (KRAS G12C): 10 to 100 nM; IC50 (KRAS G12V): 10 to 100 nM; IC50 (KRAS G12D): 100 to 1000 nM; IC50 (KRAS G13C): 10 to 100 nM; IC50 (KRAS G12S): 10 to 100 nM |
| CCn1c(-c2cccnc2[C@H](C)OC)c2c3cc(ccc31)-c1csc(n1)C[C@H](NC(=O)[C@H](C(C)C)N(C)C(=O)N1CC[C@H]3CN(C)C[C@H]31)C(=O)N1CCC[C@H](N1)C(=O)OCC(C)(C)C2 [Compound A471] | – | 10 to 100 nM | 100 to 1000 nM | IC50 [3]: 100 to 1000 nM |
| CCn1c(-c2cccnc2[C@H](C)OC)c2c3cc(ccc31)-c1csc(n1)C[C@H](NC(=O)[C@H](C(C)C)N(C)C(=O)N1CC3(CCN(C)CC3)C1)C(=O)N1CCC[C@H](N1)C(=O)OCC(C)(C)C2 [Compound A513] | < 5000 nM | < 10 nM | 10 to 100 nM | – |
| CCn1c(-c2cccnc2[C@H](C)OC)c2c3cc(ccc31)-c1csc(n1)C[C@H](NC(=O)[C@H](C1CCCC1)N(C)C(=O)N1CCN(C)CC1)C(=O)N1CCC[C@H](N1)C(=O)OCC(C)(C)C2 [Compound A525] | < 5000 nM | < 10 nM | 10 to 100 nM | – |
| CCn1c(-c2cccnc2[C@H](C)OC)c2c3cc(ccc31)-c1csc(n1)C[C@H](NC(=O)[C@H](C(C)C)N(C)C(=O)N1CCC(N(C)C)CC1)C(=O)N1CCC[C@H](N1)C(=O)OCC(C)(C)C2 [Compound A571] | < 5000 nM | < 10 nM | – | IC50 ([2]; KRAS G12C FRET IC50): 100 to 1000 nM |
| CCn1c(-c2cccnc2[C@H](C)OC)c2c3cc(ccc31)-c1csc(n1)C[C@H](NC(=O)[C@H](C(C)C)N(C)C(=O)N1CCC13CCOCC3)C(=O)N1CCC[C@H](N1)C(=O)OCC(C)(C)C2 [Compound A601] | < 5000 nM | < 10 nM | < 10 nM | – |
